In patent publication US20250214945A1, “THIOBENZIMIDAZOLE DERIVATIVE OR PHARMACEUTICALLY ACCEPTABLE SALT THEREOF, AND USE THEREOF” (KOREA UNIVERSITY RESEARCH AND BUSINESS FOUNDATION, priority 2022, published 2025):

What was measured:
[1] = system: Human triple-negative breast cancer (TNBC) cell line MDA-MB-231; experiment: MTS cell viability assay, MDA-MB-231 breast cancer cell line; format: cell-based; conditions: 0 to 10 μM, FIG. 3, one range stated for both cell lines and three compounds
Experimental: (§1) Human triple-negative breast cancer (TNBC) cell line MDA-MB-231 (Cell seeding numbers: 1(M231)×10^4 cells/wells (confluency ≥25%) and HER2 positive breast cancer (HER2^+ BC) cell line JIMT-1 (Cell seeding numbers: 1.2(JIMT)×10^4 cells/wells (confluency ≥25%)) were used in the experiments.
(§2) The above mentioned cell lines were cultured under a 5% CO2 environment at 37° C. in Dulbecco's modified Eagle's medium (DMEM) containing 10% fetal bovine serum (FBS), streptomycin-penicillin (100 U/mL) and Fungizone ([…]), respectively.
(§3) The human breast cancer cell lines MDA-MB-231 and JIMT-1 were treated with thiobenzimidazole derivatives of Chemical Formula 1-1 to Chemical Formula 1-17 at concentrations of 0, 0.5, 1 and 5 μM for 72 hours, respectively, and then cell viability was measured by MTS assay. The MTS assay was performed by attaching cells to 96-well plates for 24 hours, treating them with the above mentioned thiobenzimidazole derivatives for 72 hours, and then developing them with MTS (3-(4,5-dimethylthiazol-2-yl)-5-(3-carboxymethoxyphenyl)-2-(4-sulfophenyl)-2H-tetrazolium) for 4 hours, and measuring the absorbance at 490 nm using a Spectramax Plus384 microplate analyzer.
(§4) MDA-MB-231 and JIMT-1 cell lines were treated with the thiobenzimidazole derivatives of the present disclosure (Chemical Formula 1-10, 1-11 and 1-15) at concentrations of 0. 0.01, 0.05, 0.1, 0.1, 0.25, 0.5, 1, 5 and 10 μM, respectively, and then the cell viability and corresponding IC50 values were determined. The preparation and experimentation methods for the cell lines were the same as those used in the Example 1 experiments.

[2] = system: HER2 positive breast cancer (HER2+ BC) cell line JIMT-1; experiment: MTS cell viability assay, JIMT-1 breast cancer cell line; format: cell-based; conditions: Homo sapiens, 0 to 10 μM, FIG. 3, one range stated for both cell lines and three compounds
Experimental: as §1, §2, §3, §4

Structure (SMILES): COC(=O)Nc1nc2cc(Sc3ccc(N4CCS(=O)(=O)CC4)cc3)ccc2[nH]1 [1-10]
- IC50 [1]: 150 to 350 nM
- IC50 [2]: 150 to 350 nM

Structure (SMILES): COC(=O)Nc1nc2cc(Sc3ccc(N4CC(C)N(S(C)(=O)=O)C(C)C4)cc3)ccc2[nH]1 (stereo not drawn) [1-11]
- IC50 [1]: 150 to 350 nM
- IC50 [2]: 150 to 350 nM

Structure (SMILES): COC(=O)Nc1nc2cc(Sc3ccc(N4CCC(O)CC4)cc3)ccc2[nH]1 [1-15]
- IC50 [1]: 150 to 350 nM
- IC50 [2]: 150 to 350 nM
